Results: patent US20220315624A1, “THIOSTREPTON ANALOGS AND METHODS OF MAKING AND USING SAME” (YALE UNIVERSITY, priority 2019, published 2022)
In brackets after ≈: the same amount, converted by molar mass.

Tests used:
[1] = system: E. coli ATCC 25922; test: MIC broth microdilution; format: cell-based
Protocol: (§1) Twenty-four test agents were shipped to Micromyx and stored at −20° C. until assayed. The compounds were dissolved in 100% DMSO at 6.46 mg/mL prior to testing. Comparator drugs were supplied by Micromyx and were handled as described below:
(§2) The test organisms for the assay were recent clinical isolates or reference strains acquired from the American Type Culture Collection (ATCC; Manassas, Va.). Upon receipt, the isolates were streaked onto Trypticase Soy Agar II+5% sheep blood (TSAB). Colonies were harvested from the plates and a cell suspension was prepared in Trypticase Soy Broth containing cryoprotectant. Aliquots were then frozen at −80° C. Prior to the assay, the frozen seeds of all bacterial isolates to be tested were thawed and streaked for isolation onto TSAB (BD/BBL, Sparks, Md.; Lot No. 9011894), and were incubated overnight at 35° C.
(§3) The test medium for all isolates was cation-adjusted Mueller Hinton broth (CAMHB; BD/BBL; Lot No. 8190586). CAMHB (Cation Adjusted Mueller Hinton Broth) was supplemented with 3% (v/v) lysed horse blood (LHB; Hemostat, Dixon, Calif.; Lot No. 474990) for the testing of streptococci.
(§4) MIC values were determined using a broth microdilution method as recommended by CLSI. Automated liquid handlers (Multidrop 384, Labsystems, Helsinki, Finland; Biomek 2000 and Biomek F/X, Beckman Coulter, Fullerton Calif.) were used to conduct serial dilutions and make liquid transfers.
(§5) The wells of standard 96-well microdilution plates (Costar 3795, Corning Inc., Corning, N.Y.) were filled with 150 μL of the appropriate diluent in columns 2-12 on the Multidrop 384 (DMSO for the thiostrepton analogs, deionized H2O for vancomycin and ceftazidime). These plates were used to prepare the drug “mother plate” which provided the serial drug dilutions for the replicate “daughter plates”. The compounds (300 μL) were dispensed at 101× the highest concentration to be tested into the appropriate row of the “mother plate”. The Biomek 2000 was used to transfer 150 μL of each stock solution from the wells in Column 1 of the mother plate to make ten subsequent 2-fold serial dilutions. The wells of Column 12 contained no drug and served as the organism growth control wells. The daughter plates were loaded with 190 μL of test medium using the Multidrop 384.
(§6) The daughter plates were prepared on the Biomek F/X instrument which transferred […] of drug solution from each well of the mother plate to each corresponding well of each daughter plate in a single step. The wells of the daughter plates ultimately contained 190 μL of media, 2 μL of drug solution, and 10 μL of inoculum prepared as described below. The final concentration of DMSO (if used as a solvent) in the test well was 1%.
(§7) A standardized inoculum of each organism was prepared per CLSI methods. A suspension of organisms from a fresh plate was prepared in CAMHB to equal the turbidity of a 0.5 McFarland standard. The suspensions were diluted 1:20 in CAMHB, or in the case of streptococci CAMHB with LHB. The inoculum for each organism was dispensed into sterile reservoirs divided by length (Beckman Coulter), and the Biomek 2000 was used to inoculate the plates. Daughter plates were placed on the Biomek 2000 work surface reversed so that inoculation took place from low to high drug concentration. The Biomek 2000 delivered 10 μL of standardized inoculum into each well. These dilutions yielded a final cell concentration in the daughter plates of approximately 5.0×10^5 CFU/mL.
(§8) Plates were stacked 3 high, covered with a lid on the top plate, placed in plastic bags, and incubated at 35° C. for 16-20 hr for all organisms except streptococci which were incubated for 20-24 hr. Following incubation, the microplates were removed from the incubator and viewed from the bottom using a plate viewer. The MIC was read and recorded as the lowest concentration of drug that inhibited visible growth of the organism. […]

[2] = system: E. faecalis ATCC 29212 VSE; test: MIC broth microdilution; format: cell-based; conditions: Enterococcus faecalis, ATCC29212
Protocol: as §1, §2, §3, §4, §5, §6, §7, §8

[3] = system: E. faecalis MMX 486 VRE; test: MIC broth microdilution; format: cell-based; conditions: Enterococcus faecalis, VRE
Protocol: as §1, §2, §3, §4, §5, §6, §7, §8

[4] = system: E. faecium MMX 485 VRE; test: MIC broth microdilution; format: cell-based; conditions: Enterococcus faecium, VRE
Protocol: as §1, §2, §3, §4, §5, §6, §7, §8

[5] = system: E. faecium MMX 708 VSE; test: MIC broth microdilution; format: cell-based; conditions: Enterococcus faecium, MMX708VSE
Protocol: as §1, §2, §3, §4, §5, §6, §7, §8

[6] = system: S. aureus ATCC 29213 MSSA; test: MIC broth microdilution; format: cell-based; conditions: Staphylococcus aureus
Protocol: as §1, §2, §3, §4, §5, §6, §7, §8

[7] = system: S. aureus MMX 8088 MRSA; test: MIC broth microdilution; format: cell-based; conditions: Staphylococcus aureus, MRSA
Protocol: as §1, §2, §3, §4, §5, §6, §7, §8

[8] = system: S. pneumoniae ATCC 49619 PISP; test: MIC broth microdilution; format: cell-based; conditions: Streptococcus pneumoniae, ATCC49619, 20 h
Protocol: as §1, §2, §3, §4, §5, §6, §7, §8

[9] = system: S. pyogenes ATCC 19615; test: MIC broth microdilution; format: cell-based; conditions: Streptococcus pyogenes, ATCC19615, 20 h
Protocol: as §1, §2, §3, §4, §5, §6, §7, §8

[10] = system: S. aureus ATCC 29213 MSSA; conditions: range in parentheses; cited from earlier work
[11] = system: E. faecalis ATCC 29212 VSE; conditions: range in parentheses; cited from earlier work
[12] = system: S. pneumoniae ATCC 49619 PISP; conditions: range in parentheses; cited from earlier work
[13] = Aqueous solubility analysis in MOPS buffer; format: physicochemical; conditions: after 24 hours in 10 mM aqueous MOPS buffer
Protocol: A 2 dram vial was loaded with ˜0.5 mg of a thiostrepton derivative and suspended in ˜4 mL of aqueous 10 mM MOPS buffer (pKa 7.2). The suspension was stirred vigorously for 24 h to ensure equilibration, then filtered through a […] centrifuge filtration unit. A 3.0 mL aliquot was concentrated, and the dried residue was diluted with 0.30 mL of 1:1 1,4-dioxane/H2O (10× original concentration necessitated by detection limits). The total UV absorbance (200-300 nm) was measured in triplicate by UPLC runs with a photodiode array detector. A calibration curve for each compound was created using data points from 3 trials each of concentrations in 1:1 1,4-dioxane/H2O ranging from […]. These concentrations were plotted against their respective average absorbances. The experimental concentration of each compound was calculated by dividing the found μg/mL value by the residue concentration factor of 10 to yield the actual solubility value.

[14] = system: S. aureus isolates; test: MIC broth microdilution, S. aureus isolates; format: cell-based
Protocol: as §1, §2, §3, §4, §5, §6, §7, §8

[15] = system: E. faecalis and E. faecium; test: MIC broth microdilution, summary over enterococci; format: cell-based
Protocol: as §1, §2, §3, §4, §5, §6, §7, §8

[16] = system: S. pneumoniae and S. pyogenes isolates; test: MIC broth microdilution, summary over streptococci; format: cell-based; conditions: read-out: MIC values against S. pneumoniae and S. pyogenes isolates
Protocol: as §1, §2
The test medium for all isolates was cation-adjusted Mueller Hinton broth (CAMHB; BD/BBL; Lot No. 8190586). […]
MIC values were determined using a broth microdilution method as recommended by CLSI. […]
as §8, with “Following incubation, the microplates were removed from the incubator and viewed from the bottom using a plate viewer.” left out

[17] = Un-inoculated solubility control plate (drug precipitation); format: physicochemical
[18] = system: Gram-positive cocci; test: MIC broth microdilution, overall summary; format: cell-based; conditions: summary of MIC testing
Protocol: as §1, §2, §3, §4, §5
The daughter plates were prepared on the Biomek F/X instrument which transferred […] of drug solution from each well of the mother plate to each corresponding well of each daughter plate in a single step. […]
as §8, with “Following incubation, the microplates were removed from the incubator and viewed from the bottom using a plate viewer.” left out

Row | SMILES | MIC ([1]; Escherichia coli, ATCC25922) | MIC [2] | MIC [3] | MIC [4] | MIC [5] | MIC [6] | MIC [7] | MIC [8] | MIC [9] | further results
1 | CN[C@H](CC(C)C)C(=O)N[C@H]1C(=O)N[C@@H](CC(N)=O)C(=O)N[C@H]2C(=O)N[C@H]3C(=O)N[C@H](C(=O)N[C@H](C(=O)O)c4cc(O)cc(O)c4-c4cc3ccc4O)[C@H](O)c3ccc(c(Cl)c3)Oc3cc2cc(c3O[C@@H]2O[C@H](CO)[C@@H](O)[C@H](O)[C@H]2O[C@H]2C[C@](C)(N)[C@H](O)[C@H](C)O2)Oc2ccc(cc2Cl)[C@H]1O [Vancomycin, reference compound] | > 64 µg/mL | 2 µg/mL (≈ 1.38 µM) | > 32 µg/mL | > 32 µg/mL | 0.25 µg/mL (≈ 0.173 µM) | 1 µg/mL (≈ 0.69 µM) | 1 µg/mL (≈ 0.69 µM) | 0.12 µg/mL (≈ 0.0828 µM) | 0.25 µg/mL (≈ 0.173 µM) | CLSI quality control range (MIC) [10]: 0.5 to 2 µg/mL; CLSI quality control range (MIC) [11]: 1 to 4 µg/mL; CLSI quality control range (MIC) [12]: 0.12 to 0.5 µg/mL
2 | C=C(NC(=O)C(=C)NC(=O)c1csc(C2=N[C@@H]3c4csc(n4)[C@H]4NC(=O)c5csc(n5)[C@H]([C@](C)(O)[C@@H](C)O)NC(=O)[C@H]5CSC(=N5)/C(=C/C)NC(=O)[C@H]([C@@H](C)O)NC(=O)c5csc(n5)[C@]3(CC2)NC(=O)[C@H](C)NC(=O)C(=C)NC(=O)[C@H](C)NC(=O)[C@H]([C@@H](C)CC)N[C@@H]2C=Cc3c([C@H](C)O)cc(nc3[C@H]2O)C(=O)O[C@@H]4C)n1)C(N)=O [Thiostrepton] | > 64 µg/mL | 0.12 µg/mL (≈ 0.0721 µM) | 0.12 µg/mL (≈ 0.0721 µM) | 0.06 µg/mL (≈ 0.036 µM) | 0.12 µg/mL (≈ 0.0721 µM) | 0.06 µg/mL (≈ 0.036 µM) | 0.12 µg/mL (≈ 0.0721 µM) | < 0.001 µg/mL | < 0.001 µg/mL | Solubility pH 7.2 [13]: 3.0 (±0.2) μg/mL; MIC ([1]; E. coli ATCC 25922, CAMHB): >64 µg/mL; MIC ([14]; Staphylococcus aureus, read-out: MIC values against S. aureus isolates): 0.06 to 0.12 µg/mL (≈ 0.036 to 0.0721 µM); MIC values against MRSA relative to MSSA ([14]; identical or within 2-fold, impact of methicillin resistance): ≤ 2 fold; VRE MIC values relative to VSE MIC values ([15]; impact of vancomycin resistance among enterococci): comparable; MIC ([15]; read-out: MIC values against E. faecalis and E. faecium): 0.06 to 0.12 µg/mL (≈ 0.036 to 0.0721 µM); MIC [16]: ≤ 0.001 µg/mL; Precipitation in CAMHB ([17]; at 64 μg/mL in CAMHB): distinct precipitation; Precipitation in CAMHB in LHB ([17]; at 64 μg/mL in CAMHB in LHB): distinct precipitation; Activity among the evaluated analogs / against evaluated Gram-positive cocci (summary in words) [18]: potent activity
